Measured values: patent US11883537B2, “Sustained release solid dosage forms for modulating the colonic microbiome” (Axial Therapeutics, Inc., priority 2019, dated 2024)
Where two headings read alike, the source gives them in different places.

What was measured:
α-synuclein = α-synuclein (Homo sapiens, UniProt P37840); test: ThT assay, aggregation of α-synuclein; assay type: biochemical
Description: (§1) A compound that inhibits, or that may inhibit, amyloidogenesis is combined with a bacterial amyloid initiator (e.g., E. coli CsgA), or a host-derived amyloidogenic protein (e.g., α-synuclein) and an amyloid precursor in the presence of Thioflavin T (ThT). Separately, as a control, bacterial amyloid initiator, amyloid precursor, and Thioflavin T are combined in the absence of the suspected amyloidogenesis inhibitor. Thioflavin T fluorescence is monitored over time. […] The Tht assay was used with a cell-free assay to assess the effects of compounds on aggregation of α-synuclein of E. coli CsgA, and to assess the effects of compounds on aggregation of α-synuclein seeded by E. coli CsgA.

[1] = molecular target: α-synuclein seeded by E. coli CsgA (Homo sapiens, UniProt P37840); assay type: biochemical; conditions: ThT fluorescence, cell-free
Description: as §1

E. coli CsgA = E. coli CsgA (Escherichia coli, UniProt P28307); test: ThT assay, aggregation of E. coli CsgA; assay type: biochemical; conditions: ThT fluorescence, cell-free
Description: A compound that inhibits, or that may inhibit, amyloidogenesis is combined with a bacterial amyloid initiator (e.g., E. coli CsgA), or a host-derived amyloidogenic protein (e.g., α-synuclein) and an amyloid precursor in the presence of Thioflavin T (ThT). Separately, as a control, bacterial amyloid initiator, amyloid precursor, and Thioflavin T are combined in the absence of the suspected amyloidogenesis inhibitor. Thioflavin T fluorescence is monitored over time. A reduction in the rate of increase in Thioflavin T fluorescence, and/or a reduction in the maximum level of Thioflavin T fluorescence in the sample containing the suspected inhibitor, relative to the control sample, confirms that the suspected amyloidogenesis inhibitor is in fact functioning to inhibit amyloid formation. The Tht assay was used with a cell-free assay to assess the effects of compounds on aggregation of α-synuclein of E. coli CsgA, and to assess the effects of compounds on aggregation of α-synuclein seeded by E. coli CsgA. For a detailed description of the ThT assay, see, e.g., International Publication No. WO/2018/213204, which is incorporated by reference herein in its entirety.

αSyn amyloid formation = conditions: mice; cited from earlier work
[2] = system: bacterial curli levels in the gastrointestinal tract; test: Murine models, curli content in feces; assay type: in vivo; conditions: SPF mice or germ free mice mono-colonized with E. coli MC4100; oral
Method: The following two mouse models were used to evaluate the in vivo activity of test articles (i.e., sustained release solid dosage forms described herein).
Model 1 was performed in selected strains of specific pathogen free (SPF) mice (e.g. Swiss Webster) that carry curli producing bacteria as part of their native gastrointestinal microbiota.
Model 2 was performed in germ free mice that have no native microbiota. In these mice administration, by oral gavage, of a single strain of curli-producing bacteria (e.g. E. coli MC4100) led to stable bacterial colonization of their gastrointestinal tract. […]
To evaluate the ability of test articles to modify bacterial curli levels in the gastrointestinal tract mice, from either Model 1 or 2, were treated with compound typically administered once daily via oral gavage. […] Where appropriate, test articles were evaluated at multiple dose levels, or at greater or lower dosing frequency. […]
To enable the quantitative assessment of test article impact on gastrointestinal curli levels, fecal samples were collected from these treated mice. […]
Assessment of curli content in feces was achieved through one of four approaches: • 1. Quantitative measurement of messenger RNA (mRNA) levels for csgA using a specific qRT-PCR approach. • 2. Quantitative measurement of curli protein levels using fluorescent dyes that bind to amyloid proteins (e.g. ThT, Congo Red, FSB). • 3. […]

E. coli CsgA, sequence (P28307 21-151): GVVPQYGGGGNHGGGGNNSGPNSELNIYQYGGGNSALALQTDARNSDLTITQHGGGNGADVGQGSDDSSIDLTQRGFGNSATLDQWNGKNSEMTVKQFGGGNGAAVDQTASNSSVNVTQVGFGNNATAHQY

| Structure (SMILES) | Inhibition of Aggregation αSyn (α-synuclein; ThT fluorescence, cell-free) | Inhibition of Aggregation CsgA-seeded αSyn [1] | Inhibition of Aggregation αSyn (α-synuclein) | Inhibition of Aggregation CsgA (E. coli CsgA) | motor scores (αSyn amyloid formation) | αSyn amyloid formation in vivo (αSyn amyloid formation) | in vivo activity on fecal curli content [2] |
| --- | --- | --- | --- | --- | --- | --- | --- |
| COc1cc(/C=C/C(=O)/C=C(O)/C=C/c2ccc(O)c(OC)c2)ccc1O [curcumin] | +++ ((+++) is greater than 60% inhibition) | +++ ((+++) is greater than 60% inhibition) |  |  |  |  |  |
| C=CCc1ccc(OC)c(OC)c1 [4-allyl-1,2-dimethoxy-benzene, 4-allyl-1,2-dimethoxy-benzene] |  | ++ ((++) is between 30% to 60% inhibition) | − ((−) is between −10% to 10% inhibition) | − − ((− −) is less than −10% inhibition) |  |  |  |
| O=c1c(-c2ccc(O)cc2)coc2cc(O)cc(O)c12 [genistein] | ++ ((++) is between 30% to 60% inhibition) |  |  |  |  |  |  |
| COc1cc(O)ccc1O [methoxy- hydroquinone, methoxy-hydroquinone] | +++ ((+++) is greater than 60% inhibition) | +++ ((+++) is greater than 60% inhibition) |  | ++ ((++) is between 30% to 60% inhibition) |  |  |  |
| O=c1c(O)c(-c2ccc(O)cc2O)oc2cc(O)cc(O)c12 [morin] | +++ ((+++) is greater than 60% inhibition) | +++ ((+++) is greater than 60% inhibition) |  | +++ ((+++) is greater than 60% inhibition) |  |  |  |
| COc1ccccc1O [guaiacol] | − ((−) is between −10% to 10% inhibition) | ++ ((++) is between 30% to 60% inhibition) |  | − ((−) is between −10% to 10% inhibition) |  |  |  |
| CC(Cc1ccc(O)c(O)c1)C(C)Cc1ccc(O)c(O)c1 (centres unmarked) [NDGA] | ++ ((++) is between 30% to 60% inhibition) | ++ ((++) is between 30% to 60% inhibition) |  | + ((+) is between 10% to 30% inhibition) |  |  |  |
| Oc1ccc(/C=C/c2cc(O)cc(O)c2)cc1 [resveratrol] | +++ ((+++) is greater than 60% inhibition) |  |  | +++ ((+++) is greater than 60% inhibition) |  |  |  |
| CCCCCCCCCCCCOC(=O)c1cc(O)c(O)c(O)c1 [lauryl gallate] | ++ ((++) is between 30% to 60% inhibition) | + ((+) is between 10% to 30% inhibition) |  | − ((−) is between −10% to 10% inhibition) |  |  |  |
| Cc1ccc(C(C)C)c(O)c1 [thymol] | − − ((− −) is less than −10% inhibition) | − ((−) is between −10% to 10% inhibition) |  | − ((−) is between −10% to 10% inhibition) |  |  |  |
| O=C(O)c1cc(O)c(O)c(O)c1 [gallic acid] | +++ ((+++) is greater than 60% inhibition) | +++ ((+++) is greater than 60% inhibition) |  | +++ ((+++) is greater than 60% inhibition) |  |  |  |
| O=c1cc(-c2ccc(O)cc2)oc2cc(O)cc(O)c12 [apigenin] | ++ ((++) is between 30% to 60% inhibition) |  |  |  |  |  |  |
| O=c1c(O)c(-c2ccc(O)c(O)c2)oc2cc(O)cc(O)c12 [quercetin] | +++ ((+++) is greater than 60% inhibition) |  |  | ++ ((++) is between 30% to 60% inhibition) |  |  |  |
| C=CCc1ccc(O)c(OC)c1 [eugenol] | − ((−) is between −10% to 10% inhibition) | ++ ((++) is between 30% to 60% inhibition) |  | − ((−) is between −10% to 10% inhibition) |  |  |  |
| O=C(/C=C/c1ccc(O)c(O)c1)O[C@H](Cc1ccc(O)c(O)c1)C(=O)O [rosmarinic acid] | +++ ((+++) is greater than 60% inhibition) |  |  | ++ ((++) is between 30% to 60% inhibition) |  |  |  |
| O=C(CCc1ccc(O)cc1)c1c(O)cc(O)cc1O [phloretin] | ++ ((++) is between 30% to 60% inhibition) | + ((+) is between 10% to 30% inhibition) |  | + ((+) is between 10% to 30% inhibition) |  |  |  |
| Cc1ccc(C(C)C)cc1O [carvacrol] | − ((−) is between −10% to 10% inhibition) | − ((−) is between −10% to 10% inhibition) |  | − − ((− −) is less than −10% inhibition) |  |  |  |
| O=C(O[C@@H]1Cc2c(O)cc(O)cc2O[C@@H]1c1cc(O)c(O)c(O)c1)c1cc(O)c(O)c(O)c1 [EGCG, epigallocatechin gallate] | +++ ((+++) is greater than 60% inhibition) | +++ ((+++) is greater than 60% inhibition) |  | ++ ((++) is between 30% to 60% inhibition) | improved motor scores | inhibits or reduces αSyn amyloid formation in mice | reduce fecal levels of csgA mRNA, CsgA protein, and curli protein |
| C/C=C/c1ccc(O)c(OC)c1 [isoeugenol] | − ((−) is between −10% to 10% inhibition) | ++ ((++) is between 30% to 60% inhibition) |  | − ((−) is between −10% to 10% inhibition) |  |  |  |
| Brc1cccc(-c2cc(-c3ccc4c(c3)OCO4)n[nH]2)c1 [Anle 138b] |  |  |  | − ((−) is between −10% to 10% inhibition) |  |  |  |
